Test system: K12877-001-R-J1-PDC complex spheroid viability
Test: Anticancer human tumor K12877-001-R-J1-PDC patient-derived lung adenocarcinoma cell line growth inhibition [RAS]
Conditions: for IC50: curve of first compound; for viability, T/C: stronger effect = lower value
Summary of the method: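 Agents were tested in combination matrices in half-log decrements from a top concentration at or near clinical Cmax (10 microM if undetermined). Targets were multi-cell spheroids of tumour lines plus HUVEC and MSC stromal cells.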

[1] = second compound 0.000949 µM, first compound 0.0316 µM
[2] = second compound 0.000949 µM, first compound 0.1 µM
[3] = second compound 0.000949 µM, first compound 0.316 µM
[4] = second compound 0.000949 µM, first compound 1 µM
[5] = second compound 0.000949 µM, first compound 3.16 µM
[6] = second compound 0.000949 µM, first compound 10 µM
[7] = second compound 0.003 µM, first compound 0.0316 µM
[8] = second compound 0.003 µM, first compound 0.1 µM
[9] = second compound 0.003 µM, first compound 0.316 µM
[10] = second compound 0.003 µM, first compound 1 µM
[11] = second compound 0.003 µM, first compound 3.16 µM
[12] = second compound 0.003 µM, first compound 10 µM
[13] = second compound 0.00949 µM, first compound 0.0316 µM
[14] = second compound 0.00949 µM, first compound 0.1 µM
[15] = second compound 0.00949 µM, first compound 0.316 µM
[16] = second compound 0.00949 µM, first compound 1 µM
[17] = second compound 0.00949 µM, first compound 3.16 µM
[18] = second compound 0.00949 µM, first compound 10 µM
[19] = second compound 0.03 µM, first compound 0.0316 µM
[20] = second compound 0.03 µM, first compound 0.1 µM
[21] = second compound 0.03 µM, first compound 0.316 µM
[22] = second compound 0.03 µM, first compound 1 µM
[23] = second compound 0.03 µM, first compound 3.16 µM
[24] = second compound 0.03 µM, first compound 10 µM
[25] = second compound 0.0949 µM, first compound 0.0316 µM
[26] = second compound 0.0949 µM, first compound 0.1 µM
[27] = second compound 0.0949 µM, first compound 0.316 µM
[28] = second compound 0.0949 µM, first compound 1 µM
[29] = second compound 0.0949 µM, first compound 3.16 µM
[30] = second compound 0.0949 µM, first compound 10 µM
[31] = second compound 0.3 µM, first compound 0.0316 µM
[32] = second compound 0.3 µM, first compound 0.1 µM
[33] = second compound 0.3 µM, first compound 0.316 µM
[34] = second compound 0.3 µM, first compound 1 µM
[35] = second compound 0.3 µM, first compound 3.16 µM
[36] = second compound 0.3 µM, first compound 10 µM
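Note: spheroids exposed to agents for one week before readout.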
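Throughout, for viability, T/C: tumour cells co-cultured with HUVEC and mesenchymal stem cells in spheroids.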

## CC(Nc1ccc2c(c1)OCCn1cc(N3C(=O)OCC3C(F)F)nc1-2)C(N)=O (centres undefined) + CCn1c(-c2cc(N3CCN(C)CC3)cnc2C(C)OC)c2c3cc(ccc31)-c1csc(n1)CC(NC(=O)C1CC1C)C(=O)N1CCCC(N1)C(=O)OCC(C)(C)C2
Second compound 0.000949 µM
  IC50: > 10 µM
Second compound 0.003 µM
  IC50: 7.42 µM
Second compound 0.00949 µM
  IC50: 4.59 µM
Second compound 0.03 µM
  IC50: 1.25 µM
Second compound 0.0949 µM
  IC50: 0.249 µM
Second compound 0.3 µM
  IC50: 0.0775 µM
[1]
  viability, T/C: 80.9%
[2]
  viability, T/C: 81.2%
[3]
  viability, T/C: 81.5%
[4]
  viability, T/C: 72.4%
[5]
  viability, T/C: 62.2%
[6]
  viability, T/C: 56%
[7]
  viability, T/C: 71.6%
[8]
  viability, T/C: 68.2%
[9]
  viability, T/C: 63.4%
[10]
  viability, T/C: 68.3%
[11]
  viability, T/C: 62.9%
[12]
  viability, T/C: 45.5%
[13]
  viability, T/C: 72.7%
[14]
  viability, T/C: 68.9%
[15]
  viability, T/C: 70.6%
[16]
  viability, T/C: 69.5%
[17]
  viability, T/C: 59.1%
[18]
  viability, T/C: 29.9%
[19]
  viability, T/C: 94.3%
[20]
  viability, T/C: 82.6%
[21]
  viability, T/C: 64.1%
[22]
  viability, T/C: 52.6%
[23]
  viability, T/C: 42.7%
[24]
  viability, T/C: 20%
[25]
  viability, T/C: 80.3%
[26]
  viability, T/C: 61.2%
[27]
  viability, T/C: 43.8%
[28]
  viability, T/C: 35.8%
[29]
  viability, T/C: 23.7%
[30]
  viability, T/C: 12%
[31]
  viability, T/C: 65.9%
[32]
  viability, T/C: 40.2%
[33]
  viability, T/C: 32.2%
[34]
  viability, T/C: 30.3%
[35]
  viability, T/C: 19.1%
[36]
  viability, T/C: 8.63%

## CCC(CC)c1cc(NC2CCC(N)C2)n2nccc2n1 (centres undefined) + CCn1c(-c2cc(N3CCN(C)CC3)cnc2C(C)OC)c2c3cc(ccc31)-c1csc(n1)CC(NC(=O)C1CC1C)C(=O)N1CCCC(N1)C(=O)OCC(C)(C)C2
Second compound 0.000949 µM
  IC50: 1.31 µM
Second compound 0.003 µM
  IC50: 1.29 µM
Second compound 0.00949 µM
  IC50: 1.38 µM
Second compound 0.03 µM
  IC50: 1.51 µM
Second compound 0.0949 µM
  IC50: 1.27 µM
Second compound 0.3 µM
  IC50: 1.1 µM
[1]
  viability, T/C: 87.7%
[2]
  viability, T/C: 80%
[3]
  viability, T/C: 84.6%
[4]
  viability, T/C: 64.7%
[5]
  viability, T/C: 1.77%
[6]
  viability, T/C: 0.95%
[7]
  viability, T/C: 65.8%
[8]
  viability, T/C: 69.4%
[9]
  viability, T/C: 66.5%
[10]
  viability, T/C: 64%
[11]
  viability, T/C: 1.46%
[12]
  viability, T/C: 0.76%
[13]
  viability, T/C: 62%
[14]
  viability, T/C: 65.9%
[15]
  viability, T/C: 71.3%
[16]
  viability, T/C: 76.7%
[17]
  viability, T/C: 1.47%
[18]
  viability, T/C: 0.9%
[19]
  viability, T/C: 95.4%
[20]
  viability, T/C: 92.6%
[21]
  viability, T/C: 99.5%
[22]
  viability, T/C: 77.5%
[23]
  viability, T/C: 1.04%
[24]
  viability, T/C: 0.76%
[25]
  viability, T/C: 119%
[26]
  viability, T/C: 107%
[27]
  viability, T/C: 102%
[28]
  viability, T/C: 63.6%
[29]
  viability, T/C: 1.11%
[30]
  viability, T/C: 0.76%
[31]
  viability, T/C: 94.6%
[32]
  viability, T/C: 98.1%
[33]
  viability, T/C: 86.2%
[34]
  viability, T/C: 55.2%
[35]
  viability, T/C: 0.75%
[36]
  viability, T/C: 0.8%

Reference: PubChem BioAssay AID2060894 (Molecular Pharmacology Branch, DTP, NCI, 2025)
